Experimental data published in article PMC4979471 (Cell Death Discovery, 2015).
Like-named read-outs stand apart in the source and are kept apart here.

Key:
Assay in all cases: Kinase selectivity, P33-radiolabeled assay
Type in all cases: biochemical
Conditions in all cases: 10 μM ATP
OSR1/OXSR1 = target: T1, OSR1/OXSR1 (Homo sapiens, UniProt O95747)
T1 construct: purchased Reaction Biology Corp
Method: (§1) The compound was tested at a single dose in duplicate at 10 μM. Reactions were carried out at 10 μM ATP. Data are reported as % enzyme activity (relative to DMSO controls). The full data set is shown in the Supplementary Table I.

ULK2 = target: T2, ULK2 (Homo sapiens, UniProt Q8IYT8)
T2 construct: purchased Reaction Biology Corp
T2 sequence (Q8IYT8 1-1036): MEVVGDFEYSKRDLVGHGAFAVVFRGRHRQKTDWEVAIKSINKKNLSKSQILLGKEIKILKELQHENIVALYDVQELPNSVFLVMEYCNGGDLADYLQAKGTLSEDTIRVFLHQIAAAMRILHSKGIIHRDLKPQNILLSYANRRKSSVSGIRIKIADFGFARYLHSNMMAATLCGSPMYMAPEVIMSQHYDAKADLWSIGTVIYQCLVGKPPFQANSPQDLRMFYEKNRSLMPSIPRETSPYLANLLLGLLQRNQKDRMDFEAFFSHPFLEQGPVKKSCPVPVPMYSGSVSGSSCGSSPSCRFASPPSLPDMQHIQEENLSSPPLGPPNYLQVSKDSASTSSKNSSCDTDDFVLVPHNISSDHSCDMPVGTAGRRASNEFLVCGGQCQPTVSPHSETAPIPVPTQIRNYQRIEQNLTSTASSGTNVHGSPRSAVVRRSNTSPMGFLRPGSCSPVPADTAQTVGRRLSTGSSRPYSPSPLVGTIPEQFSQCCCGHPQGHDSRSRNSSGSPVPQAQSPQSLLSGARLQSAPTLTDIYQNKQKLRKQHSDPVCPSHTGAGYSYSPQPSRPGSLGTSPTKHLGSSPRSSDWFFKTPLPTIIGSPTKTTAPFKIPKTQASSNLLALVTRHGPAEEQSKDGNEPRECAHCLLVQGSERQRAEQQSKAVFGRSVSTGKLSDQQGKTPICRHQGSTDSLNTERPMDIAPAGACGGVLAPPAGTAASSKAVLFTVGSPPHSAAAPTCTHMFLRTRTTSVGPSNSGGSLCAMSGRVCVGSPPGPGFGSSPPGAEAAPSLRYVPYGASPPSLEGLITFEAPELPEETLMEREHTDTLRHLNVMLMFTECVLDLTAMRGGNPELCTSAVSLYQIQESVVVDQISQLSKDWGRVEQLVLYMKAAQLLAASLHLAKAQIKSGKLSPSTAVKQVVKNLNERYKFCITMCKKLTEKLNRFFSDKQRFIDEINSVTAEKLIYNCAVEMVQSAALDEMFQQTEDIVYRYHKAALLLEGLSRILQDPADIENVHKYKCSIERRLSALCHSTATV
Method: as §1

IRAK4 = target: T3, IRAK4 (Homo sapiens, UniProt Q9NWZ3)
T3 construct: purchased Reaction Biology Corp
T3 sequence (Q9NWZ3 1-460): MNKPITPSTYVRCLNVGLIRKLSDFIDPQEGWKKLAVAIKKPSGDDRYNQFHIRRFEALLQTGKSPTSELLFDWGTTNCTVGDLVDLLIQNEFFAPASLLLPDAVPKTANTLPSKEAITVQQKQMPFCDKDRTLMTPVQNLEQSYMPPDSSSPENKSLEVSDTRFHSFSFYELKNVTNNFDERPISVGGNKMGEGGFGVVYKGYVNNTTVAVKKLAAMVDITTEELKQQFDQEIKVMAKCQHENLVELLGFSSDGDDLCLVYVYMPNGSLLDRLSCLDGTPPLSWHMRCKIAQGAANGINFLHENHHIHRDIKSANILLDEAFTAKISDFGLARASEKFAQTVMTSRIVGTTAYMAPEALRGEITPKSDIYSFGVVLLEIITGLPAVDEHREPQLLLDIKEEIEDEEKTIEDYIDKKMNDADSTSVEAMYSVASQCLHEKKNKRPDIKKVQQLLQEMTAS
Method: as §1

SIK1 = target: T4, SIK1 (Homo sapiens, UniProt P57059)
T4 construct: purchased Reaction Biology Corp
Method: as §1

STK32B/YANK2 = target: T5, STK32B/YANK2 (Homo sapiens, UniProt Q9NY57)
T5 construct: purchased Reaction Biology Corp
Method: as §1

MLK3/MAP3K11 = target: T6, MLK3/MAP3K11 (Homo sapiens, UniProt Q16584)
T6 construct: purchased Reaction Biology Corp
Method: as §1

CK2a2 = target: T7, CK2a2 (Homo sapiens, UniProt P19784)
T7 construct: purchased Reaction Biology Corp
Method: as §1

FMS = target: T8, FMS (Homo sapiens, UniProt P07333)
T8 construct: purchased Reaction Biology Corp
Method: as §1

JNK3 = target: T9, JNK3 (Homo sapiens, UniProt P53779)
T9 construct: purchased Reaction Biology Corp
Method: as §1

PIM2 = target: T10, PIM2 (Homo sapiens, UniProt Q9P1W9)
T10 construct: purchased Reaction Biology Corp
Method: as §1

DAPK2 = target: T11, DAPK2 (Homo sapiens, UniProt Q9UIK4)
T11 construct: purchased Reaction Biology Corp
Method: as §1

SIK2 = target: T12, SIK2 (Homo sapiens, UniProt Q9H0K1)
T12 construct: purchased Reaction Biology Corp
Method: as §1

EPHA4 = target: T13, EPHA4 (Homo sapiens, UniProt P54764)
T13 construct: purchased Reaction Biology Corp
Method: as §1

[1] = read-out: % Enzyme Activity (relative to DMSO controls) AVG
[2] = read-out: % Enzyme Activity (relative to DMSO controls) Data 1
[3] = read-out: % Enzyme Activity (relative to DMSO controls) Data 2

T8 sequence (P07333 20-972): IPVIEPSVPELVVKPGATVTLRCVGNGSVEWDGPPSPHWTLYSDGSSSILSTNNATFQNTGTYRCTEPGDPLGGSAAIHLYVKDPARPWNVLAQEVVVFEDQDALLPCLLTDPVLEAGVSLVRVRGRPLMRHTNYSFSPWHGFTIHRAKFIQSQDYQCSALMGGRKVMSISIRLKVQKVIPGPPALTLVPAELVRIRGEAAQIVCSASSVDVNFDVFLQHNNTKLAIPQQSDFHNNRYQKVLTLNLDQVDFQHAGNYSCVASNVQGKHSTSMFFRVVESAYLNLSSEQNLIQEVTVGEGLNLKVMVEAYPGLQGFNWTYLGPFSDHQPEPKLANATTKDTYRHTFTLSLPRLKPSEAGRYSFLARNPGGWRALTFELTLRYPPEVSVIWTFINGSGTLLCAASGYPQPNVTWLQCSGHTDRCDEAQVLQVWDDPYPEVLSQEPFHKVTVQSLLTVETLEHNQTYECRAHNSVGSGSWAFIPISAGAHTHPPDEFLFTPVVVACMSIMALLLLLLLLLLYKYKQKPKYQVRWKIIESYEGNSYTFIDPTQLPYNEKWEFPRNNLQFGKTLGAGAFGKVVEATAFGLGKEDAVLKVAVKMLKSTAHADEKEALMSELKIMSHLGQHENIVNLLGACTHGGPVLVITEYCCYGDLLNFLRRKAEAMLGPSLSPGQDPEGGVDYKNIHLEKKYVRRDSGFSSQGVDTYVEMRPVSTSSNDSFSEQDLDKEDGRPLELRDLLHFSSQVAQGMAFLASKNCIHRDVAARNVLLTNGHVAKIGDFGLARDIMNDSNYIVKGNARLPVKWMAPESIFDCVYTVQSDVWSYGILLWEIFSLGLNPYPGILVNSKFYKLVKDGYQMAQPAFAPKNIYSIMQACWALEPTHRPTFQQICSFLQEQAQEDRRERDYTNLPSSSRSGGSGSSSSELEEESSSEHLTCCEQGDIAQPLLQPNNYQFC
T6 sequence (Q16584 whole entry): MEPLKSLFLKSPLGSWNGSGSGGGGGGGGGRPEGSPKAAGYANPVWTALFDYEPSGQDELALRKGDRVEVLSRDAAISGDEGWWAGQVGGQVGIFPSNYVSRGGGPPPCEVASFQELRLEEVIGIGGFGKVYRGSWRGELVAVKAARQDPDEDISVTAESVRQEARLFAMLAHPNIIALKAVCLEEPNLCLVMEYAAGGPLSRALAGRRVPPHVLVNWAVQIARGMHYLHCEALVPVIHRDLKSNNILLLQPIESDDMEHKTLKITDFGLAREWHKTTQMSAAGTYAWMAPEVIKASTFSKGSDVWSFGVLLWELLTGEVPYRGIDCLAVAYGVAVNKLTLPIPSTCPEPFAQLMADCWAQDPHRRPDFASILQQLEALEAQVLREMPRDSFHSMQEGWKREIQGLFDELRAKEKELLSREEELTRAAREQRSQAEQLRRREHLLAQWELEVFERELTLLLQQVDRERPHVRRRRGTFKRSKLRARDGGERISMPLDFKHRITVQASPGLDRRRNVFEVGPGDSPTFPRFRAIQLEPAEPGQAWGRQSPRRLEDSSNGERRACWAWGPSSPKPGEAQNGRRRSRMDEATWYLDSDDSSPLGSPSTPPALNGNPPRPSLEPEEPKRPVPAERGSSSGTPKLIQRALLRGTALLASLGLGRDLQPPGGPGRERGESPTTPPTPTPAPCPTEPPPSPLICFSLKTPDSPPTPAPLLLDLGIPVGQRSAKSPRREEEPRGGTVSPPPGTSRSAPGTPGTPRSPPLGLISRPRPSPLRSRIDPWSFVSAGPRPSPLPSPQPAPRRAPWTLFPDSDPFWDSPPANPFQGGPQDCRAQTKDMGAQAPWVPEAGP
T11 sequence (Q9UIK4 whole entry): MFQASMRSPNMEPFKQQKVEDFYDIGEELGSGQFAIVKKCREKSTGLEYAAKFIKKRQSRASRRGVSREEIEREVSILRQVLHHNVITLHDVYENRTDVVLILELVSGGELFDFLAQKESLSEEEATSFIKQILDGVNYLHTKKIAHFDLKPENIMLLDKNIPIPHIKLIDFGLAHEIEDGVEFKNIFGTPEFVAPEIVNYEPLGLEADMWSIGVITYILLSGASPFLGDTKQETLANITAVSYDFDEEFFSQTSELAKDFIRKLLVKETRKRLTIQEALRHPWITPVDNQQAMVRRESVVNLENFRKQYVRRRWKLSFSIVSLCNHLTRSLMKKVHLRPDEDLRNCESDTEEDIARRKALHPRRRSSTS
T7 sequence (P19784 whole entry): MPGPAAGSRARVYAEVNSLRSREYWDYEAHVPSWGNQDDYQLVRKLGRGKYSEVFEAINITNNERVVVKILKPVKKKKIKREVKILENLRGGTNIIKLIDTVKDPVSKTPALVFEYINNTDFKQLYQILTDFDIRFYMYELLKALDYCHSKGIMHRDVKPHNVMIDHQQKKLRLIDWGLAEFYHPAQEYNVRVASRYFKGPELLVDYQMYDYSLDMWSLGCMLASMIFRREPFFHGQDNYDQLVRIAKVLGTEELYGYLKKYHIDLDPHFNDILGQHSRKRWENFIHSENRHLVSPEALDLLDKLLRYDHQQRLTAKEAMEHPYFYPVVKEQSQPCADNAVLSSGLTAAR
T9 sequence (P53779 whole entry): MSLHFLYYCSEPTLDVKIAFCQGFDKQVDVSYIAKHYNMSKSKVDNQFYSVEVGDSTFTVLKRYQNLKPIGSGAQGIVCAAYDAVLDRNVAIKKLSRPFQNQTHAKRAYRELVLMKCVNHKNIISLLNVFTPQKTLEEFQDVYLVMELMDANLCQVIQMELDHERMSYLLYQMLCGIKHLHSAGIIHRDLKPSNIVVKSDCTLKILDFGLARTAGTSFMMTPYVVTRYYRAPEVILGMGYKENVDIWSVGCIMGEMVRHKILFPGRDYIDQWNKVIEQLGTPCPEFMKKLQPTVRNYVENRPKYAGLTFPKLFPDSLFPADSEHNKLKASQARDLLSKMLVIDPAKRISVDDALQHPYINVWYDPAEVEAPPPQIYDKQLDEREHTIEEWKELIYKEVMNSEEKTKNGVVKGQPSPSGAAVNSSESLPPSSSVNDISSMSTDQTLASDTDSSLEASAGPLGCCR
T4 sequence (P57059 whole entry): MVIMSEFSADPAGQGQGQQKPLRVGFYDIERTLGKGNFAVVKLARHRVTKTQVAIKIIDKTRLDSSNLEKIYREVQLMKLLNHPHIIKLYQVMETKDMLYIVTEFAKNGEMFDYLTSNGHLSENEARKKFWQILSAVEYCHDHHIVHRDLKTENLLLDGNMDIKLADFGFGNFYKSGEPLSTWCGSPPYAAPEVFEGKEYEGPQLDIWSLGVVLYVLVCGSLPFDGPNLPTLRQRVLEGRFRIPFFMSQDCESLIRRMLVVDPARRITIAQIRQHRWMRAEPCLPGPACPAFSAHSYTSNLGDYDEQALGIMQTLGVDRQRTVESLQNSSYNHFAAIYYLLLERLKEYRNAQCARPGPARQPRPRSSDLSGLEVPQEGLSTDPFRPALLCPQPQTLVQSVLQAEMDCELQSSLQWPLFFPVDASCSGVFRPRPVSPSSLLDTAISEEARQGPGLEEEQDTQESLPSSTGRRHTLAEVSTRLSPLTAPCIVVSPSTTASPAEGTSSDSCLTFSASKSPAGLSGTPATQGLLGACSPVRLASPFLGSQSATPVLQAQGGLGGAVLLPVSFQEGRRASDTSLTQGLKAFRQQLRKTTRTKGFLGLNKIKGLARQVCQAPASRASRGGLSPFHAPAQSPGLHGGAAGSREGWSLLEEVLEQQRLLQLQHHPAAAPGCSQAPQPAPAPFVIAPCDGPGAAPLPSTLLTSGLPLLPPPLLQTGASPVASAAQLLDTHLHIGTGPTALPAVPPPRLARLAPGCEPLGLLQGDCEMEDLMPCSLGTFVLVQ
T10 sequence (Q9P1W9 whole entry): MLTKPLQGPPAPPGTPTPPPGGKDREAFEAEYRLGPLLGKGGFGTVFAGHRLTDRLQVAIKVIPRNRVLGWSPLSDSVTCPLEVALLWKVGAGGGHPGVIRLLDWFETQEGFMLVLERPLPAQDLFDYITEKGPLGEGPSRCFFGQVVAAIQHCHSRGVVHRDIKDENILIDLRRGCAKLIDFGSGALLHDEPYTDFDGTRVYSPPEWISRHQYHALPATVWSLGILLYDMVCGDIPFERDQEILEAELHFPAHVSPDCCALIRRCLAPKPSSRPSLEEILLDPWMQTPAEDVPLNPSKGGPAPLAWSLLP
T12 sequence (Q9H0K1 whole entry): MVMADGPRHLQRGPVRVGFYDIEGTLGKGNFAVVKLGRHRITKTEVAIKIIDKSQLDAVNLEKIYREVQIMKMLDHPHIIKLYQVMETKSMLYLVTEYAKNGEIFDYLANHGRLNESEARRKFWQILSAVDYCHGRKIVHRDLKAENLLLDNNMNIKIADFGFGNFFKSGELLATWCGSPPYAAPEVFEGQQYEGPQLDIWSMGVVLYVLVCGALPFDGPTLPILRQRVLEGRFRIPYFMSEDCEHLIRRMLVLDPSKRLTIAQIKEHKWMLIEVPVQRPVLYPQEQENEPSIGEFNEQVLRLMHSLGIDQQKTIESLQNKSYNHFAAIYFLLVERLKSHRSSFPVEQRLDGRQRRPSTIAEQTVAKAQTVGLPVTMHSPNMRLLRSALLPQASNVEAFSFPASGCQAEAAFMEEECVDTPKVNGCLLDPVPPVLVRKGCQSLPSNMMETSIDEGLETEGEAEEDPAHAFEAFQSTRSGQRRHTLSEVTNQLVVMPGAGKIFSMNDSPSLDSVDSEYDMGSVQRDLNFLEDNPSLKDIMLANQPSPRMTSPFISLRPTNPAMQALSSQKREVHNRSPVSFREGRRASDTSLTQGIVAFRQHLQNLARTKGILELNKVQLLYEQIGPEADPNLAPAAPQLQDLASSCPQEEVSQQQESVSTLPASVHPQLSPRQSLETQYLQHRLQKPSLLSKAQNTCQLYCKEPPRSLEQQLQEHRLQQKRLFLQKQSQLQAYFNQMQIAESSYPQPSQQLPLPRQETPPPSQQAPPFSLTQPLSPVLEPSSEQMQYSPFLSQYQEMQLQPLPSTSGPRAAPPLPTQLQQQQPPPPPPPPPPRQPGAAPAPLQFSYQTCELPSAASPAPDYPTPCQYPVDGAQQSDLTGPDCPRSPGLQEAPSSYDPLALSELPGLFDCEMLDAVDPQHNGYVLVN

CC(C)(C)C(=O)N1N=CC[C@H]1c1ccccc1 [GSK′963]
remaining activity at 10 µM (OSR1/OXSR1; [1]): 120% | remaining activity at 10 µM (OSR1/OXSR1; [2]): 127% | remaining activity at 10 µM (OSR1/OXSR1; [3]): 112% | remaining activity at 10 µM (ULK2; [1]): 99.7% | remaining activity at 10 µM (ULK2; [2]): 99.8% | remaining activity at 10 µM (ULK2; [3]): 99.5% | remaining activity at 10 µM (IRAK4; [1]): 115% | remaining activity at 10 µM (IRAK4; [2]): 116% | remaining activity at 10 µM (IRAK4; [3]): 114% | remaining activity at 10 µM (SIK1; [1]): 113% | remaining activity at 10 µM (SIK1; [2]): 113% | remaining activity at 10 µM (SIK1; [3]): 113% | remaining activity at 10 µM (STK32B/YANK2; [1]): 98.5% | remaining activity at 10 µM (STK32B/YANK2; [2]): 98.6% | remaining activity at 10 µM (STK32B/YANK2; [3]): 98.4% | remaining activity at 10 µM (MLK3/MAP3K11; [1]): 95% | remaining activity at 10 µM (MLK3/MAP3K11; [2]): 96% | remaining activity at 10 µM (MLK3/MAP3K11; [3]): 94% | remaining activity at 10 µM (CK2a2; [1]): 107% | remaining activity at 10 µM (CK2a2; [2]): 108% | remaining activity at 10 µM (CK2a2; [3]): 107% | remaining activity at 10 µM (FMS; [1]): 95% | remaining activity at 10 µM (FMS; [2]): 97.2% | remaining activity at 10 µM (FMS; [3]): 92.8% | remaining activity at 10 µM (JNK3; [1]): 100% | remaining activity at 10 µM (JNK3; [2]): 101% | remaining activity at 10 µM (JNK3; [3]): 100% | remaining activity at 10 µM (PIM2; [1]): 115% | remaining activity at 10 µM (PIM2; [2]): 112% | remaining activity at 10 µM (PIM2; [3]): 118% | remaining activity at 10 µM (DAPK2; [1]): 105% | remaining activity at 10 µM (DAPK2; [2]): 104% | remaining activity at 10 µM (DAPK2; [3]): 105% | remaining activity at 10 µM (SIK2; [1]): 96.7% | remaining activity at 10 µM (SIK2; [2]): 94.8% | remaining activity at 10 µM (SIK2; [3]): 98.6% | remaining activity at 10 µM (EPHA4; [1]): 99.2% | remaining activity at 10 µM (EPHA4; [2]): 99.2% | remaining activity at 10 µM (EPHA4; [3]): 99.2%
